Test results taken from patent US20070043109A1, “Slimming cosmetic composition” (Sederma Sas, priority 2003, published 2007).

Key:
[1] = system: LDL receptor; experiment: RT-PCR quantification of LDL receptor mRNA expression in 3T3-L1 neo-adipocytes; format: cell-based; details: 24 hours
Description: (§1) To evidence regulation of transcription (control of the number of copies of the messenger RNA for the gene coding for the protein studied), it was necessary to isolate the messenger RNA (mRNA) synthesized from the cell culture. The mRNA specific for the protein of interest must be recognized in the total mRNA pool present in the cell.
(§2) The used method is RT-PCR, of amplification and quantization, conducted in real time on the latest-generation systems and which enables in-line quantitative measurement of the target mRNA.
(§3) Neo-adipocytes 3T3-L1 in the adipocytic differentiation phase (after addition of an appropriate triggering cocktail) were incubated with cafestol acetate for 24 hours.
(§4) At the end of the test, the adipocytes were lysed and the extracted mRNA transcribed to cDNA (by reverse transcriptase). The cDNA were then amplified (n copies using Taq polymerase) to obtain a detectable signal.
(§5) The amplicons (cDNA amplification products) were quantified directly, as they emerged in the RT-PCR system, then subjected to electrophoresis in order to visually illustrate the results.

[2] = system: VLDL receptor; experiment: RT-PCR quantification of VLDL receptor mRNA expression in 3T3-L1 neo-adipocytes; format: cell-based
Description: as §1, §2, §3, §4, §5

CC(=O)OC[C@@]1(O)C[C@@]23CC[C@@H]4c5ccoc5CC[C@@]4(C)[C@@H]2CC[C@@H]1C3 [Cafestol Acetate, cafestol acetate]
Change in LDL receptor mRNA expression relative to control ([1]; equivalent to that of the positive control): −33% | mRNA expression LDL receptor, standardized on internal standard β-actin, percentage relative to the control ([1]; cafestol acetate 15 ppm, 3T3-L1 neo-adipocytes in differentiation phase, mean of n = 3 tests, control = 100): 66% | mRNA expression VLDL receptor, standardized on internal standard β-actin, percentage relative to the control ([2]; cafestol acetate 15 ppm, 24 hours, 3T3-L1 neo-adipocytes in differentiation phase, mean of n = 3 tests, control = 100): 90% | Reduction of the VLDLr (mRNA expression) ([2]; in 24 hours): 10%
